Counter-ions that a name gives are not always drawn.
Legend:
Leukemia = test: NCI assay, average per cancer type; conditions: for CC50: 48 h, read-out: Average LOG10 LC50; for GI50: read-out: Average LOG10 GI50
T47D = test: Microculture tetrazolium assay; type: cell-based; conditions: Homo sapiens, read-out: IC50
SKVLB = test: Microculture tetrazolium assay; type: cell-based; conditions: for VLB/OV3: IC50 ratio SKVLB/SKOV3; for IC50: SKVLB, read-out: IC50
MATB/ADR = test: Soft agar colony formation disk diffusion assay; type: cell-based, rat
How it was run: (§1)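 Anti-clonogenic activity is scored as the distance from the drug-loaded disk edge to the closest colony of more than 50 cells. Solid tumour and leukaemia lines are plated in separate dishes in two-layer soft agar and incubated 10-20 days at 37° C.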

MATB.WT = test: Soft agar colony formation disk diffusion assay; type: cell-based, rat
How it was run: as §1

solid tumors = test: NCI assay, mean potency in solid tumors; conditions: for CC50 / GI50: Homo sapiens; for CC50: 48 h, read-out: Average LOG10 LC50, Mean Potency in solid tumors; for GI50: read-out: Average LOG10 GI50, Mean Potency in solid tumors
HT29 = test: Soft agar colony formation disk diffusion assay; type: cell-based, human
How it was run: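 Cells were plated at 10^4–2×10^5 cells per dish in a 0.4% Noble agar upper layer over 0.8% agar. The compound (DMSO/water solution) was applied on a 6.5 mm filter disk, and plates were incubated at 37 °C, 5% CO2 for 10–20 days. Anti-clonogenic activity was measured microscopically as the inhibition zone from the disk edge to the nearest colonies (>50 cells).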

Ovarian = test: NCI assay, average per cancer type; conditions: Homo sapiens; for CC50: 48 h, read-out: Average LOG10 LC50; for GI50: read-out: Average LOG10 GI50

Question: `COC(=O)[C@@H]1CC2=C(C(=O)c3c(c(OC)c4ccccc4c3O)C2=O)[C@@H](O[C@H]2C[C@H](NC(=O)C(F)(F)F)[C@H](O)[C@H](C)O2)O1` (mixture of isomers) [BCH-674, (1'S,1S,3R) and 1'S,1R,3S) Methyl(11-hydroxy-6-methoxy-1-[2',3',6'-trideoxy-3-trifluoroacetamido-4'-hydroxy-L-lyxohexopyranose]-5,12-dioxo-3,4,5,12-tetrahydroanthra-ceno[2,3-c]pyran-3-yl) formate] was tested. Which CC50 (Leukemia) did it give?
Answer: > 100 µM

Question: And the GI50 (Leukemia)?
Answer: 8.71 µM

Question: And the IC50 (T47D)?
Answer: 4.17 µM

Question: What about the VLB/OV3 (SKVLB) of the same compound?
Answer: 0.91

Question: What about the IC50 (SKVLB) of the same compound?
Answer: 6.81 µM

Question: And the zone of inhibition (MATB/ADR; 10 μg/DISK)?
Answer: 24.4 ± 8.6 Zone Units

Question: And the zone of inhibition (MATB/ADR; 100 μg/DISK)?
Answer: 213.5 ± 25.8 Zone Units

Question: What about the zone of inhibition (MATB.WT; 10 μg/DISK) of the same compound?
Answer: 30.5 ± 13.0 Zone Units

Question: And the zone of inhibition (MATB.WT; 100 μg/DISK)?
Answer: 198.2 ± 21.5 Zone Units

Question: And the CC50 (solid tumors)?
Answer: 81.3 µM

Question: And the GI50 (solid tumors)?
Answer: 12.3 µM

Question: What about the “Average LOG10 LC50, Mean Potency in solid tumors” value (solid tumors; solid tumors, 2880 min) of the same compound?
Answer: -4.09 ± 0.11 log molar

Question: What about the zone of inhibition (HT29; 10 μg/DISK) of the same compound?
Answer: 122.2 ± 80.6 Zone Units

Question: What about the zone of inhibition (HT29; 100 μg/DISK) of the same compound?
Answer: 36.6 ± 17.2 Zone Units

Question: And the CC50 (Ovarian)?
Answer: 83.2 µM

Question: What about the GI50 (Ovarian) of the same compound?
Answer: 15.8 µM

Question: What does the source list for `COC(=O)[C@H]1CC2=C(C(=O)c3c(c(OC)c4ccccc4c3O)C2=O)[C@H](O[C@H]2C[C@H](NC(=O)C(F)(F)F)[C@H](O)[C@H](C)O2)O1` (mixture of isomers) [BCH-675, (1'S,1S,3R) and 1'S,1R,3S) Methyl(11-hydroxy-6-methoxy-1-[2',3',6'-trideoxy-3-trifluoroacetamido-4'-hydroxy-L-lyxohexopyranose]-5,12-dioxo-3,4,5,12-tetrahydroanthra-ceno[2,3-c]pyran-3-yl) formate]?
Answer: CC50 (Leukemia): > 100 µM; GI50 (Leukemia): 2.95 µM; IC50 (T47D): 2.8 µM; VLB/OV3 (SKVLB): 0.43; IC50 (SKVLB): 3.97 µM; zone of inhibition (MATB/ADR; 10 μg/DISK): 22.3 ± 3.5 Zone Units; zone of inhibition (MATB/ADR; 100 μg/DISK): 59.4 ± 8.6 Zone Units; zone of inhibition (MATB.WT; 10 μg/DISK): 0 Zone Units; zone of inhibition (MATB.WT; 100 μg/DISK): 32.5 ± 9.3 Zone Units; CC50 (solid tumors): 66.1 µM; GI50 (solid tumors): 8.32 µM; zone of inhibition (HT29; 10 μg/DISK): 0 Zone Units; zone of inhibition (HT29; 100 μg/DISK): 0 Zone Units; CC50 (Ovarian): 63.1 µM; GI50 (Ovarian): 8.51 µM

Question: `CCOC(=O)C1CC2=C(CO1)C(=O)c1c(cc3ccccc3c1O)C2=O` (centres unmarked) [BCH-651, Ethyl(6 and 11 hydroxy-5,12-dioxo-3,4,5,12-tetrahydro-anthraceno[2,3-c]pyran-3-yl)]formate] was tested. Which CC50 (Leukemia) did it give?
Answer: > 100 µM

Question: What about the GI50 (Leukemia) of the same compound?
Answer: 3.31 µM

Question: What about the IC50 (T47D) of the same compound?
Answer: 36.3 µM

Question: What about the VLB/OV3 (SKVLB) of the same compound?
Answer: 1.13

Question: And the IC50 (SKVLB)?
Answer: 23.6 µM

Question: What about the zone of inhibition (MATB/ADR; 10 μg/DISK) of the same compound?
Answer: 0 Zone Units

Question: What about the zone of inhibition (MATB/ADR; 100 μg/DISK) of the same compound?
Answer: 100.0 Zone Units

Question: What about the zone of inhibition (MATB.WT; 10 μg/DISK) of the same compound?
Answer: 0 Zone Units

Question: What about the zone of inhibition (MATB.WT; 100 μg/DISK) of the same compound?
Answer: 36.6 ± 8.6 Zone Units

Question: And the CC50 (solid tumors)?
Answer: 50.1 µM

Question: And the GI50 (solid tumors)?
Answer: 5.25 µM

Question: And the zone of inhibition (HT29; 10 μg/DISK)?
Answer: 0 Zone Units

Question: What about the zone of inhibition (HT29; 100 μg/DISK) of the same compound?
Answer: 61.0 ± 1.0 Zone Units

Question: What about the CC50 (Ovarian) of the same compound?
Answer: 46.8 µM

Question: What about the GI50 (Ovarian) of the same compound?
Answer: 5.89 µM

Question: `CCOC(=O)[C@@H]1CC2=C(C(=O)c3cc4ccccc4c(O)c3C2=O)[C@@H](O[C@H]2C[C@H](NC(=O)C(F)(F)F)[C@H](O)[C@H](C)O2)O1` [BCH-681, (1'S,1R,3S)Ethyl[6-hydroxy-5,12-dioxo-1-(3'-trifuloroacetamido-1-daunosaminyl)-3,4,5,12-tetrahydroanthraceno(2,3-C)pyran-3-yl]formate] was tested. Which CC50 (Leukemia) did it give?
Answer: < 100 µM

Question: What about the GI50 (Leukemia) of the same compound?
Answer: 2.04 µM

Question: What about the IC50 (T47D) of the same compound?
Answer: 8.15 µM

Question: What about the VLB/OV3 (SKVLB) of the same compound?
Answer: 1.16

Question: And the IC50 (SKVLB)?
Answer: 6.99 µM

Question: And the “cross resistance with adriamycin, MATB/ADR vs MATB.WT” value (MATB/ADR)?
Answer: no cross resistance with adriamycin

Question: What about the zone of inhibition (MATB/ADR; 10 μg/DISK) of the same compound?
Answer: 54.9 ± 8.6 Zone Units

Question: And the zone of inhibition (MATB/ADR; 100 μg/DISK)?
Answer: 244.0 ± 43.1 Zone Units

Question: And the zone of inhibition (MATB.WT; 10 μg/DISK)?
Answer: 51.8 ± 4.3 Zone Units

Question: What about the zone of inhibition (MATB.WT; 100 μg/DISK) of the same compound?
Answer: 176.9 ± 8.6 Zone Units

Question: What about the CC50 (solid tumors) of the same compound?
Answer: 12.3 µM

Question: What about the GI50 (solid tumors) of the same compound?
Answer: 2.09 µM

Question: What about the zone of inhibition (HT29; 10 μg/DISK) of the same compound?
Answer: 106.7 ± 21.5 Zone Units

Question: What about the zone of inhibition (HT29; 100 μg/DISK) of the same compound?
Answer: 213.5 ± 43.1 Zone Units

Question: And the CC50 (Ovarian)?
Answer: 16.6 µM

Question: What about the GI50 (Ovarian) of the same compound?
Answer: 2.69 µM

From patent publication US5593970A, “Heterocyclic anthracycline analogs” (priority 1994, dated 1997)
